# Measurements from patent US20110165279A1, “SWEET POTATO TRYPSIN INHIBITOR AND METHODS FOR TREATING INFLAMMATION AND HYPERALGESIA” (Academia Sinica Office of Public Affairs (Technology …, priority 2010, published 2011).
# Legend:
# [1] = tested on: hind paw edema induced by λ-carrageenan in mice; experiment: λ-carrageenan-induced hind paw edema test in mice; assay type: in vivo, mouse; conditions: 10 mg/kg i.p., 3, 4 and 5 hours after Carr injection; p<0.01 or p<0.001
# Procedure: Male ICR mice (18-25 g) were obtained from the BioLASCO Taiwan Co., Ltd. The animals were kept in plexiglass cages under a constant temperature of 22±1° C., relative humidity 55±5%, and a light regime of 12 hours dark/12 hour light for at least 2 weeks before the experiment. They were given food and water ad libitum. All experimental procedures were performed according to the NIH Guide for the Care and Use of Laboratory Animals. The placebo groups were given subcutaneous 0.1 ml/10 g saline using a bent blunted 27-gauge needle connected to a 1 ml syringe. All tests were conducted under the guidelines of the International Association for the Study of Pain [Zimmermann, M., Ethical guidelines for investigations of experimental pain in conscious animals. Pain. 1983, 16, 109-110].
# Male ICR mice (eight per group), 18 g to 25 g, were fasted for 24 hours before the experiment with free access to water. […] Paw volume was measured immediately after Carr injection and at 1, 2, 3, 4 and 5 hours intervals after the administration of the edematogenic agent using a plethysmometer (model 7159, Ugo Basile, Varese, Italy). The degree of swelling induced was evaluated by the ratio a/b, where a is the volume of the right hind paw after Carr treatment, and b is the volume of the right hind paw before Carr treatment.
# mouse hind footpad = experiment: Histological examination of mouse hind footpad after carrageenan (H&E, neutrophil counts); assay type: in vivo; conditions: biopsies 5 hours after Carr, IbTI 40 mg/kg, indomethacin 10 mg/kg
# Procedure: For histological examination, biopsies of paws were taken 5 hours after Carr injection into the plantar side of right hind paws. The tissue slices were fixed in solution with 1.85% formaldehyde and 1% acetic acid for 1 week at room temperature, then dehydrated by graded ethanol and embedded in Paraffin (Sherwood Medical, St. Louis, Mo., USA). Sections (thickness 5 μm) were deparaffinized with xylene and stained with hematoxylin and eosin. All samples were observed and photographed with BH2 Olympus microscopy (Japan). Every 3-5 tissue slices were randomly chosen from control, Carr, Indo and IbTI-treated (40 mg/kg) groups. The numbers of neutrophils were counted in each scope (400×) and average counts from 5 scopes of each tissue slice were calculated.
smiles,measurement,setting,value
"COc1ccc2c(c1)c(CC(=O)O)c(C)n2C(=O)c1ccc(Cl)cc1 [Indomethacin, indomethacin]",paw edema,[1],significantly decreased paw edema
same,histological appearance of hind footpad vs Carr only,mouse hind footpad,"significantly reduced the level of hemorrhage, edema and inflammatory cell infiltration"
same,neutrophil numbers in paw tissue vs Carr-treated group,mouse hind footpad; p<0.01,significantly decreased the number of inflammatory neutrophil infiltration
